Target: T1, Angiotensin-converting enzyme (Oryctolagus cuniculus, UniProt P12822)
T1 sequence (P12822 whole entry): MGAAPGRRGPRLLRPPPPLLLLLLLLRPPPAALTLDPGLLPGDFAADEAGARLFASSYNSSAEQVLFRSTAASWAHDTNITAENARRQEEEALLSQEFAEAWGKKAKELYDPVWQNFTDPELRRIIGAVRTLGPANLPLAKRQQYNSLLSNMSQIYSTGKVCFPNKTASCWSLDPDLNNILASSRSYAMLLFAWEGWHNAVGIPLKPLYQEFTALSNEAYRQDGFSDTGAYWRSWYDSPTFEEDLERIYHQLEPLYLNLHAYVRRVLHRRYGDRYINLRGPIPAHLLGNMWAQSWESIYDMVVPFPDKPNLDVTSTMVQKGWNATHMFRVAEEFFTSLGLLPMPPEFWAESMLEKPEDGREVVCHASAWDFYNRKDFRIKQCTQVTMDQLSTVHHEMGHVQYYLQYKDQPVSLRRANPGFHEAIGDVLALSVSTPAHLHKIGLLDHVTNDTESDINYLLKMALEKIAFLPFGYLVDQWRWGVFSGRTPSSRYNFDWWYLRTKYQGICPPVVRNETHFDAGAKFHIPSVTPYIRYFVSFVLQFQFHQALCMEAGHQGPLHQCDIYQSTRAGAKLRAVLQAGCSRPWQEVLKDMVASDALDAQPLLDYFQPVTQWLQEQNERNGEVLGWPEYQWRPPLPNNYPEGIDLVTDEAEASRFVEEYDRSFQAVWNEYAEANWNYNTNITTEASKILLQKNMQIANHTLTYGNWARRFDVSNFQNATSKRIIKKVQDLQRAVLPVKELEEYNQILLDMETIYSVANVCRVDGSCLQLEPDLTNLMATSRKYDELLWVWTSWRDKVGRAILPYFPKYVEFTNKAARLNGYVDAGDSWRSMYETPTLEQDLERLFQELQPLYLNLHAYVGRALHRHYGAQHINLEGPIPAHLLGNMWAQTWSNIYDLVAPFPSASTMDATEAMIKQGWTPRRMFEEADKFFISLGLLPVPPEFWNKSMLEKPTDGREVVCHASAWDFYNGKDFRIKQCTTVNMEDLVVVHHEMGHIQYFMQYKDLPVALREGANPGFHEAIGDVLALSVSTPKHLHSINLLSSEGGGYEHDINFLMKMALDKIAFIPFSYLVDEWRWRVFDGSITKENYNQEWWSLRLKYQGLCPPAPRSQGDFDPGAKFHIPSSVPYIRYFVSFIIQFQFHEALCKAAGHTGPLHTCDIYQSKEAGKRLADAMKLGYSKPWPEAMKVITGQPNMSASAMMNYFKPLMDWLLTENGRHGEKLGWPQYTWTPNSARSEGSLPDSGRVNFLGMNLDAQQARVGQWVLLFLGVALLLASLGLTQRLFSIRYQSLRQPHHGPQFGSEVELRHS
Test: Inhibitory concentration against rabbit lung Angiotensin I converting enzyme (ACE)

- IC50: 0.09 nM
SMILES: O=C(O)[C@H](CCc1ccccc1)NC1Cc2ccccc2C2COC[C@H](C(=O)O)N2C1=O (stereo partly specified)
